Experimental data from the supplement of paper PMC8960247.
Structures can show the parent of a compound that is named as a salt. ± gives the standard error.

Tests used:
[1] = test system: 621-103 (TSC2-rescued); experiment: relative viability vs DMSO; higher = less cytotoxic; details: serum: 10% FBS, 72 h
[2] = test system: 621-102 (TSC2-deficient); experiment: as above; details: serum: 10% FBS, 72 h
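Further: immortalized renal angiomyolipoma cells stably carrying empty vector or TSC2, dosed in 384-well plates in DMEM, viability normalized to vehicle-treated wells within each plate.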

| Compound | relative viability ([1]; 0.0001 µM) [%] | relative viability ([1]; 0.001 µM) [%] | relative viability ([1]; 0.01 µM) [%] | relative viability ([1]; 0.1 µM) [%] | relative viability ([1]; 1 µM) [%] | relative viability ([1]; 10 µM) [%] | relative viability ([2]; 0.0001 µM) [%] | relative viability ([2]; 0.001 µM) [%] | relative viability ([2]; 0.01 µM) [%] | relative viability ([2]; 0.1 µM) [%] | relative viability ([2]; 1 µM) [%] | relative viability ([2]; 10 µM) [%] |
| --- | --- | --- | --- | --- | --- | --- | --- | --- | --- | --- | --- | --- |
| CCOc1nc2cccc(C(=O)OC(C)OC(=O)OC3CCCCC3)c2n1Cc1ccc(-c2ccccc2-c2nn[nH]n2)cc1 (stereo not drawn) [Candesartan cilexetil] | 96.526 ± 0.053 | 95.8 ± 3.5 | 94.03 ± 0.16 | 97.8 ± 1.6 | 99.8 ± 5.4 | 94.55 ± 0.33 | 106.1 ± 0.3 | 97.7 ± 2.1 | 102 ± 2.7 | 106 ± 1.2 | 96.9 ± 2.4 | 97.55 ± 0.87 |
| CCCCCOC(=O)Nc1nc(=O)n([C@@H]2O[C@H](C)[C@@H](O)[C@H]2O)cc1F [Capecitabine (Xeloda)] | 103 ± 1.9 | 99.6 ± 1.4 | 101.3 ± 0.12 | 99.27 ± 0.86 | 99.79 ± 0.64 | 100 ± 1.3 | 108.6 ± 0.75 | 112.3 ± 1.1 | 110 ± 2.9 | 106 ± 1.7 | 110.4 ± 0.14 | 100.35 ± 0.077 |
| NC(=O)N1c2ccccc2C=Cc2ccccc21 [Carbamazepine (Carbatrol)] | 101.9 ± 0.54 | 105.8 ± 0.3 | 103 ± 1.8 | 107.7 ± 0.39 | 105 ± 0.35 | 98.871 ± 0.053 | 93.1 ± 3.9 | 96.7 ± 3.8 | 93.3 ± 3 | 101.1 ± 0.14 | 108.4 ± 0.97 | 94.54 ± 0.19 |
| C[C@@](Cc1ccc(O)c(O)c1)(NN)C(=O)O [Carbidopa] | 92 ± 1.9 | 103.2 ± 0.12 | 93.7 ± 2.5 | 107 ± 2.1 | 104 ± 4.8 | 92.1 ± 1.4 | 97.3 ± 3.2 | 104 ± 5.4 | 90.03 ± 0.71 | 103 ± 1.6 | 99.6 ± 2.6 | 89.7 ± 1.3 |
| COc1cc2c(Oc3ccc4[nH]c(C)cc4c3F)ncnc2cc1OCCCN1CCCC1 [Cediranib (AZD2171)] | 81.9 ± 2.5 | 89.4 ± 1.5 | 102 ± 1.9 | 97.36 ± 0.37 | 62.3 ± 2.6 | 1.75 ± 0.065 | 104 ± 3.6 | 117 ± 2.7 | 121 ± 5.1 | 102 ± 2.1 | 84.2 ± 1.6 | 10.6 ± 4.9 |
| CO/N=C(\C(=O)N[C@@H]1C(=O)N2C(C(=O)O)=C(CSC(=O)c3ccco3)CS[C@H]12)c1csc(N)n1 [Ceftiofur HCl] | 98.6 ± 4.3 | 99.23 ± 0.84 | 94.4 ± 3 | 97.5 ± 5.2 | 94.3 ± 1.6 | 94.2 ± 3.3 | 116 ± 6.8 | 112.1 ± 0.33 | 123 ± 2 | 117 ± 5.6 | 116 ± 2 | 110 ± 1.9 |
| CN(C)CCCN1c2ccccc2Sc2ccc(Cl)cc21 [Chlorpromazine HCl] | 97.7 ± 3.2 | 92.6 ± 5.6 | 95.67 ± 0.89 | 102 ± 6.1 | 91.8 ± 4.6 | 63.7 ± 4.6 | 88.27 ± 0.79 | 87.9 ± 6.9 | 93.3 ± 8.6 | 101 ± 8.9 | 101 ± 7.6 | 81.9 ± 3.2 |
| CN(C)CC/C=C1/c2ccccc2Sc2ccc(Cl)cc21 [Chlorprothixene] | 103 ± 2.4 | 106 ± 5.4 | 102.3 ± 0.14 | 108 ± 2.9 | 108.9 ± 0.97 | 89.1 ± 2 | 93.1 ± 1.6 | 102 ± 5.2 | 102 ± 4.3 | 102.9 ± 0.47 | 108 ± 4 | 100.8 ± 0.6 |
| COCCOC(=O)C1=C(C)NC(C)=C(C(=O)OC/C=C/c2ccccc2)C1c1cccc([N+](=O)[O-])c1 (stereo not drawn) [Cilnidipine] | 98.6 ± 2.3 | 104 ± 3.4 | 105.9 ± 0.78 | 113 ± 2.5 | 100 ± 1.8 | 104 ± 3.1 | 118 ± 4 | 100.5 ± 0.18 | 102.6 ± 0.79 | 95.6 ± 1.2 | 99.98 ± 0.81 | 98 ± 2.2 |
| O=C1CCc2cc(OCCCCc3nnnn3C3CCCCC3)ccc2N1 [Cilostazol] | 107.6 ± 0.22 | 100.9 ± 0.71 | 108 ± 1.6 | 104.6 ± 1 | 101 ± 3.3 | 97.51 ± 0.021 | 109 ± 1.2 | 102 ± 0.67 | 107.6 ± 0.99 | 109 ± 3 | 96.51 ± 0.85 | 101 ± 2.5 |
| CC(C)(Oc1ccc(C2CC2(Cl)Cl)cc1)C(=O)O (stereo not drawn) [Ciprofibrate] | 107 ± 2.5 | 102 ± 3.9 | 98.7 ± 5 | 109.4 ± 0.22 | 103.1 ± 0.95 | 102 ± 1.3 | 105.1 ± 0.47 | 100 ± 4.4 | 103.6 ± 0.33 | 93.48 ± 0.86 | 97 ± 5.4 | 102 ± 1.7 |
| Nc1nc(Cl)nc2c1ncn2[C@H]1C[C@H](O)[C@@H](CO)O1 [Cladribine] | 101 ± 1.4 | 101 ± 2.1 | 105 ± 2.1 | 105 ± 2.4 | 60.3 ± 0.92 | 43.5 ± 0.46 | 106.2 ± 0.9 | 110 ± 1.8 | 113 ± 2.1 | 106.4 ± 0.98 | 97.8 ± 3.5 | 52.73 ± 0.19 |
| CC[C@H]1OC(=O)[C@H](C)[C@@H](O[C@H]2C[C@@](C)(OC)[C@@H](O)[C@H](C)O2)[C@H](C)[C@@H](O[C@@H]2O[C@H](C)C[C@H](N(C)C)[C@H]2O)[C@](C)(OC)C[C@@H](C)C(=O)[C@H](C)[C@@H](O)[C@]1(C)O [Clarithromycin (Biaxin,Klacid)] | 106 ± 2 | 91.4 ± 2.9 | 104 ± 1.4 | 102 ± 1.1 | 102 ± 3.7 | 93.43 ± 0.4 | 118 ± 2 | 113 ± 2.8 | 108 ± 0.65 | 115 ± 2.5 | 105 ± 0.45 | 98.8 ± 1.5 |
| CCC(C)(Oc1ccc(C2(c3ccc(OC(C)(CC)C(=O)O)cc3)CCCCC2)cc1)C(=O)O (stereo not drawn) [Clinofibrate] | 102.4 ± 0.13 | 93 ± 7.7 | 94.9 ± 0.43 | 105 ± 1.8 | 105 ± 3.6 | 91.3 ± 2.9 | 99.8 ± 0.13 | 107 ± 1.1 | 99.1 ± 2.4 | 99.1 ± 1.4 | 94.4 ± 4.2 | 107 ± 2.1 |
| CCN(CC)CCOc1ccc(C(=C(Cl)c2ccccc2)c2ccccc2)cc1 [Clomifene citrate (Serophene)] | 102 ± 3.5 | 99.3 ± 1.9 | 97.2 ± 5.9 | 96.14 ± 0.13 | 101 ± 4.7 | 14 ± 0.71 | 108 ± 1.1 | 105 ± 6 | 104 ± 3.9 | 102 ± 2.1 | 105 ± 1.7 | 58.6 ± 10 |
| CN(C)CCCN1c2ccccc2CCc2ccc(Cl)cc21 [Clomipramine HCl] | 100 ± 4.4 | 102 ± 1.1 | 102 ± 3.2 | 108 ± 3 | 93.4 ± 5.5 | 75.7 ± 1.8 | 114 ± 2.6 | 109 ± 1.4 | 111 ± 2.2 | 111 ± 4 | 109.6 ± 0.49 | 85.7 ± 0.93 |
| Clc1cccc(Cl)c1NC1=NCCN1 [Clonidine HCl (Catapres)] | 96.4 ± 1.4 | 92.5 ± 0.96 | 93.1 ± 9.7 | 110 ± 0.19 | 113 ± 5.1 | 108 ± 1.1 | 111 ± 5 | 110 ± 5.9 | 101 ± 1.1 | 104 ± 3.7 | 102.3 ± 0.16 | 104 ± 1.4 |
| COC(=O)[C@H](c1ccccc1Cl)N1CCc2sccc2C1 [Clopidogrel Bisulfate] | 109.1 ± 0.85 | 108 ± 4.5 | 111 ± 4.1 | 103 ± 2 | 104.86 ± 0.079 | 102.2 ± 0.55 | 105 ± 1.4 | 102 ± 1.4 | 108.3 ± 0.95 | 105 ± 1.4 | 105 ± 4 | 99.8 ± 5.3 |
| Nc1cc(C(Cl)=C(Cl)Cl)c(S(N)(=O)=O)cc1S(N)(=O)=O [Clorsulon] | 81.5 ± 3.3 | 86.2 ± 4 | 73.8 ± 6.7 | 88.2 ± 12 | 91.8 ± 5.8 | 79.6 ± 10 | 109 ± 2.7 | 111.6 ± 0.7 | 107 ± 1.5 | 101 ± 2.9 | 98.4 ± 1.1 | 106 ± 1.2 |
